Test results as given in article PMC4529334, “Activity of second-generation ALK inhibitors against crizotinib-resistant mutants in an NPM-ALK model compared to EML4-ALK” (Cancer Medicine, 2015).
Blank lines part the entries; values can stand above or below the compound they belong to.

Legend:
EML4-ALK (EA WT) [1] = tested on: T1, EML4-ALK (EA WT); assay: Ba/F3 proliferation, [3H]-thymidine incorporation; assay type: cell-based, Homo sapiens; details: […] °C, no IL-3, ALK-dependent cell growth, parental Ba/F3 as control
T1 construct: EML4-ALK fusion (EML4 exon 6 to ALK exon 20) in pCDH-CMV-MCS-EF1-Puro, stably expressed in murine Ba/F3 cells (IL-3-independent); single fused polypeptide; with Echinoderm microtubule-associated protein-like 4
From the text: Ba/F3 proliferation, [3H]-thymidine incorporation on EML4-ALK (EA WT)

NPM-ALK (NA WT) [2] = tested on: T2, NPM-ALK (NA WT); assay: Ba/F3 proliferation, [3H]-thymidine incorporation; assay type: cell-based, Homo sapiens; details: […] °C, no IL-3, ALK-dependent cell growth, parental Ba/F3 as control
T2 construct: NPM-ALK fusion from t(2;5)(p23;q35), pcDNA3.0, stably expressed in murine Ba/F3 cells (IL-3-independent); single fused polypeptide NPM1 N-terminal part + ALK C-terminal part with kinase domain; with Nucleophosmin

NPM-ALK (NA WT) [3] = details: […] h, […] °C, no IL-3; ALK-dependent cell growth; stated gain
From the text: Ba/F3 proliferation, [3H]-thymidine incorporation on NPM-ALK (NA WT)

EML4-ALK (EA WT) [4] = tested on: T1, EML4-ALK (EA WT); assay: Ba/F3 proliferation, [3H]-thymidine incorporation; assay type: cell-based, Homo sapiens; details: […] °C, no IL-3, ALK-dependent cell growth, parental Ba/F3 as control; remark: listed apart in the source
NPM-ALK (NA WT) [5] = tested on: T2, NPM-ALK (NA WT); assay: Ba/F3 proliferation, [3H]-thymidine incorporation; assay type: cell-based, Homo sapiens; details: […] °C, no IL-3, ALK-dependent cell growth, stated gain
NPM-ALK (NA WT) [6] = tested on: T2, NPM-ALK (NA WT); assay: Ba/F3 proliferation, [3H]-thymidine incorporation; assay type: cell-based, Homo sapiens; details: […] °C, no IL-3, ALK-dependent cell growth, parental Ba/F3 as control; remark: listed apart in the source
EML4-ALK (EA WT) [7] = details: […] h, […] °C, no IL-3; ALK-dependent cell growth; stated gain

IC50 (μmol/L) / ASP3026 (NPM-ALK (NA WT) [5]): 2.763 µmol/L
SMILES: COc1cc(N2CCC(N3CCN(C)CC3)CC2)ccc1Nc1ncnc(Nc2ccccc2S(=O)(=O)C(C)C)n1 [ASP3026]
IC50 (μmol/L) / ASP3026 (EML4-ALK (EA WT) [4]): 0.056 µmol/L | IC50 (μmol/L) / ASP3026 (NPM-ALK (NA WT) [6]): 0.084 µmol/L

SMILES: COc1cc(N2CCC(N3CCN(C)CC3)CC2)ccc1Nc1ncc(Cl)c(Nc2ccccc2P(C)(C)=O)n1 [AP26113]
IC50 (μmol/L) / AP26113 (EML4-ALK (EA WT) [7]): 0.021 µmol/L
